How the values were obtained:
[1] = molecular target: T1, Mineralocorticoid receptor (Rattus norvegicus) (UniProt P22199); assay: Anti-aldosterone effect on the urinary Na/K ratio in Wistar rats compared to spironolactone; assay type: functional; conditions: Urine
T1 sequence (whole entry): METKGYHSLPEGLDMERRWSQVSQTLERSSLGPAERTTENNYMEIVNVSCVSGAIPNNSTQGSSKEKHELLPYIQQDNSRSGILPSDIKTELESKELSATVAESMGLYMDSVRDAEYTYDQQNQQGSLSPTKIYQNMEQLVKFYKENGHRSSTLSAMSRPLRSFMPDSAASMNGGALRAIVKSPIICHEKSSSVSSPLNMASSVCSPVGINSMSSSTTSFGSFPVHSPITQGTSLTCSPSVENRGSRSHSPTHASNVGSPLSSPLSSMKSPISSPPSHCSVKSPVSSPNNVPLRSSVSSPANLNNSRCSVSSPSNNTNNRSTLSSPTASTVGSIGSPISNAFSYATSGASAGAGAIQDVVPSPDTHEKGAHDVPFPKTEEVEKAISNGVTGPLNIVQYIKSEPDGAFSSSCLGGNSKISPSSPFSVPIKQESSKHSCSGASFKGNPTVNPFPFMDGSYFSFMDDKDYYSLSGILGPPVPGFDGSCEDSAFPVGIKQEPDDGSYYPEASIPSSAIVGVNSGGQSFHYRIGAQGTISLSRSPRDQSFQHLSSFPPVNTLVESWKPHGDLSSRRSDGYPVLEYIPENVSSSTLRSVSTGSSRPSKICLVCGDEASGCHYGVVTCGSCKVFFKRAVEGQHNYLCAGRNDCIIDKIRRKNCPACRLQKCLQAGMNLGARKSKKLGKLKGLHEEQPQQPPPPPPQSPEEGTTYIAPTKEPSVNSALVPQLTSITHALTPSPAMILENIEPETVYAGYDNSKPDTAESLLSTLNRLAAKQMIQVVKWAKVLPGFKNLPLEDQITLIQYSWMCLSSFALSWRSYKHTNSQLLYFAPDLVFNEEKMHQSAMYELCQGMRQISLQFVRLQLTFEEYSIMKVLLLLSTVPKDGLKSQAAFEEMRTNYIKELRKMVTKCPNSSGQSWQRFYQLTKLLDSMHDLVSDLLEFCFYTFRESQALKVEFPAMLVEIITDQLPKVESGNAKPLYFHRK

[2] = molecular target: T2, Androgen receptor (Rattus norvegicus) (UniProt P15207); assay: Binding to rat prostate Androgen receptor compared to dihydrotestosterone; conditions: Prostate gland
T2 sequence (whole entry): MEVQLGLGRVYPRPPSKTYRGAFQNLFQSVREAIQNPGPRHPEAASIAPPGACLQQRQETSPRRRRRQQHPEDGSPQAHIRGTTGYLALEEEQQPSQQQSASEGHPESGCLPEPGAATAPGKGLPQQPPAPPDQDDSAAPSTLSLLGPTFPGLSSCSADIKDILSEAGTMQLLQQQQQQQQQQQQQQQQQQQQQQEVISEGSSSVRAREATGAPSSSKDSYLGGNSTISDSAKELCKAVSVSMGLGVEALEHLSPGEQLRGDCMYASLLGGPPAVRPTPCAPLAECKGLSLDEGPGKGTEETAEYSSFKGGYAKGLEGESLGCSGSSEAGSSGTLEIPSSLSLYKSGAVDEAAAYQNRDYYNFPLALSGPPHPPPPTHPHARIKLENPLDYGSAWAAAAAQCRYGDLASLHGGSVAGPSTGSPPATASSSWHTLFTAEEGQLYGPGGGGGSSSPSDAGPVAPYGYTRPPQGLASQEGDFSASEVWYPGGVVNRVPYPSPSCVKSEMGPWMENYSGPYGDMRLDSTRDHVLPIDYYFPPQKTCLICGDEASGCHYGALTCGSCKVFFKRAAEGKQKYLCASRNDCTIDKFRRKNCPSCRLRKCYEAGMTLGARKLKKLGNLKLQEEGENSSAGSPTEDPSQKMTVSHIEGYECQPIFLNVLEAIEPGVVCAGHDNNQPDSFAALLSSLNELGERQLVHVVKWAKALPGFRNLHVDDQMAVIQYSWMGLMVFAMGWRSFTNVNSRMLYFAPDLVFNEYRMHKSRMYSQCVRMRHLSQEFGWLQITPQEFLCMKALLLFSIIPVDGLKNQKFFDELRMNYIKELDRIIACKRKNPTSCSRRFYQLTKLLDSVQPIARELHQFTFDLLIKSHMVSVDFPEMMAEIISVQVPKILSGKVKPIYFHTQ

[3] = molecular target: T3, Progesterone receptor (Oryctolagus cuniculus) (UniProt P06186); assay: Binding to rabbit uterine progesterone receptor compared to progesterone
T3 sequence (whole entry): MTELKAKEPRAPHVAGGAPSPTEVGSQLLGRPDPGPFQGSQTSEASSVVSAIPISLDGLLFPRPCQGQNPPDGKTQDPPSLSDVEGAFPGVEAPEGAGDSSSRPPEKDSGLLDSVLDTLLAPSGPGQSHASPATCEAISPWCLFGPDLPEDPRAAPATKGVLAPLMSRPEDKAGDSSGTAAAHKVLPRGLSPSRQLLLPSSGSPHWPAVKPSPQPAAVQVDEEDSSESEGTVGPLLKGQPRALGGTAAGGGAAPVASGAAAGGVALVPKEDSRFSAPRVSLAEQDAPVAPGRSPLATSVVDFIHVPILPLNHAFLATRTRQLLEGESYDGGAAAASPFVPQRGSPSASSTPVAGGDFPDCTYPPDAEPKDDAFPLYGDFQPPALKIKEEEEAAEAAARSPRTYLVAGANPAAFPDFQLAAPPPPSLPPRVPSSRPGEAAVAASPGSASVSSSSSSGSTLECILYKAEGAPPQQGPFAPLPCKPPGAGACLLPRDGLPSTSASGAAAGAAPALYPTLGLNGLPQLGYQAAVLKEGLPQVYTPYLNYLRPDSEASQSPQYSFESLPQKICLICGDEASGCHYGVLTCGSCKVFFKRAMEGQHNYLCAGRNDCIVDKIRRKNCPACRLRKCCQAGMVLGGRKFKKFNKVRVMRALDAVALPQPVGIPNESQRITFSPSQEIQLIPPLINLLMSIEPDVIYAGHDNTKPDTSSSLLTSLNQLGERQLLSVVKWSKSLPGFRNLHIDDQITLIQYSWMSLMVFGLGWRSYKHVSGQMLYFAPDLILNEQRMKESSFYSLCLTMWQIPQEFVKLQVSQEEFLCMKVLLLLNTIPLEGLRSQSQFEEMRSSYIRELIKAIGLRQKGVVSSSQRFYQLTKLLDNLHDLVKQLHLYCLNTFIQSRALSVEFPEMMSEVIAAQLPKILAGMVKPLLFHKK

[4] = molecular target: T2, Androgen receptor (Rattus norvegicus); assay: Anogenital distance in rats after 50 mg/animal oral dose in Fetal Feminization test (control = 2.30+/-0.16); assay type: functional
[5] = molecular target: T2, Androgen receptor (Rattus norvegicus); conditions: Prostate gland
Description: Weight of prostate as anti-androgenic activity in rat after oral dose of 48+0.1 mg/day with testosterone propionate(0.1 mg/day)

[6] = molecular target: T2, Androgen receptor (Rattus norvegicus); assay: Weight of prostate as anti-androgenic activity in rat after oral dose of 12+0.1 mg/day with testosterone propionate(0.1 mg/day); assay type: functional; conditions: Prostate gland
[7] = molecular target: T2, Androgen receptor (Rattus norvegicus); conditions: Prostate gland; remark: listed apart in the source
Description: Weight of prostate as anti-androgenic activity in rat after oral dose of 96+0.1 mg/day with testosterone propionate(0.1 mg/day)

[8] = molecular target: T2, Androgen receptor (Rattus norvegicus); assay: Weight of seminal vesicle as anti-androgenic activity in rat after oral dose of 24+0.1 mg/day with testosterone propionate(0.1 mg/day); assay type: functional
[9] = molecular target: T3, Progesterone receptor (Oryctolagus cuniculus); assay: Progestational activity on oral administration (100 mg) in rabbit; assay type: functional, organism-based
[10] = molecular target: T3, Progesterone receptor (Oryctolagus cuniculus); assay: Progestational activity on oral administration (300 mg) in rabbit; assay type: functional, organism-based
[11] = molecular target: T2, Androgen receptor (Rattus norvegicus); conditions: Seminal vesicle
Description: Weight of seminal vesicle as anti-androgenic activity in rat after oral dose of 96+0.1 mg/day with testosterone propionate(0.1 mg/day)

[12] = molecular target: T2, Androgen receptor (Rattus norvegicus); assay: Weight of seminal vesicle as anti-androgenic activity in rat after oral dose of 12+0.1 mg/day with testosterone propionate(0.1 mg/day); assay type: functional
[13] = molecular target: T2, Androgen receptor (Rattus norvegicus); conditions: Seminal vesicle; remark: listed apart in the source
Description: Weight of seminal vesicle as anti-androgenic activity in rat after oral dose of 48+0.1 mg/day with testosterone propionate(0.1 mg/day)

[14] = molecular target: T2, Androgen receptor (Rattus norvegicus); assay: Weight of prostate as anti-androgenic activity in rat after oral dose of 24+0.1 mg/day with testosterone propionate(0.1 mg/day); assay type: functional; conditions: Prostate gland
Rattus norvegicus [15] = assay: Ovulation inhibitory activity in rats after 100 mg oral dose; assay type: functional
[16] = molecular target: T3, Progesterone receptor (Oryctolagus cuniculus); assay: Progestational activity on oral administration (30 mg) in rabbit; assay type: functional, organism-based
Rattus norvegicus [17] = assay: Ovulation inhibitory activity in rats after 30 mg oral dose; assay type: functional

Row | SMILES | Relative potency [1] | Competition factor [2] | Competition factor [3] | further results
1 | COC(=O)[C@@H]1CC2=CC(=O)[C@@H]3C[C@@H]3C2(C)C2CCC3(C)C(C21)[C@H]1C[C@H]1C31CCC(=O)O1 (stereo partly specified) | 140 | 53 | 98 | –
2 | CCCOC(=O)[C@@H]1CC2=CC(=O)[C@@H]3C[C@@H]3C2(C)C2CCC3(C)C(C21)[C@@H]1C[C@@H]1C31CCC(=O)O1 (stereo partly specified) | 39 | 33 | 19 | –
3 | COC(=O)[C@@H]1CC2=CC(=O)CCC2(C)C2CCC3(C)C(C21)[C@@H]1C[C@@H]1C31CCC(=O)O1 (stereo partly specified) | 217 | 112 | 25 | Anogenital distance [4]: 2 mm; Organ weight [5]: 41 mg; Organ weight [6]: 38 mg; Organ weight [7]: 30 mg; Organ weight [8]: 37 mg; McPhail index [9]: 1.8; McPhail index [10]: 1.8; Organ weight [11]: 42 mg; Organ weight [12]: 44 mg; Organ weight [13]: 47 mg; Organ weight [14]: 33 mg; Inhibition (Rattus norvegicus [15]): 0%; McPhail index [16]: 1.4; Inhibition (Rattus norvegicus [17]): 0%
4 | COC(=O)[C@@H]1CC2=CC(=O)[C@@H]3C[C@@H]3C2(C)C2CCC3(C)C(C21)[C@@H]1C[C@@H]1C31CCC(=O)O1 (stereo partly specified) | 140 | 29 | 92 | –
5 | CC(C)OC(=O)[C@@H]1CC2=CC(=O)CCC2(C)C2CCC3(C)C(C21)[C@@H]1C[C@@H]1C31CCC(=O)O1 (stereo partly specified) | < 50 | 67 | 12 | –
6 | CC(=O)S[C@@H]1CC2=CC(=O)CC[C@]2(C)[C@H]2CC[C@@]3(C)[C@@H](CC[C@@]34CCC(=O)O4)[C@H]12 [SPIRONOLACTONE] | – | – | – | Inhibition (Rattus norvegicus [15]): 100%
7 | CCOC(=O)[C@@H]1CC2=CC(=O)C=CC2(C)C2CCC3(C)C(C21)[C@@H]1C[C@@H]1C31CCC(=O)O1 (stereo partly specified) | < 50 | – | 85 | –
8 | CCOC(=O)[C@@H]1CC2=CC(=O)CCC2(C)C2CCC3(C)C(C21)[C@@H]1C[C@@H]1C31CCC(=O)O1 (stereo partly specified) | < 50 | 98 | 33 | –
9 | CC(C)OC(=O)[C@@H]1CC2=CC(=O)[C@@H]3C[C@@H]3C2(C)C2CCC3(C)C(C21)[C@@H]1C[C@@H]1C31CCC(=O)O1 (stereo partly specified) | 140 | 40 | 19 | –
10 | COC(=O)[C@@H]1CC2=CC(=O)C=CC2(C)C2CCC3(C)C(C21)[C@@H]1C[C@@H]1C31CCC(=O)O1 (stereo partly specified) | < 50 | – | – | –
11 | COC(=O)[C@@H]1CC2=CC(=O)CCC2(C)C2CCC3(C)C(CCC34CCC(=O)O4)C21 (stereo partly specified) | 104 | 142 | 130 | –
12 | CC(C)OC(=O)[C@@H]1CC2=CC(=O)C=CC2(C)C2CCC3(C)C(C21)[C@@H]1C[C@@H]1C31CCC(=O)O1 (stereo partly specified) | < 50 | 266 | 113 | –
13 | COC(=O)[C@@H]1CC2=CC(=O)CCC2(C)C2CCC3(C)C(C21)[C@H]1C[C@H]1C31CCC(=O)O1 (stereo partly specified) | 50 | 121 | 10 | –
14 | CCOC(=O)[C@@H]1CC2=CC(=O)[C@@H]3C[C@@H]3C2(C)C2CCC3(C)C(C21)[C@@H]1C[C@@H]1C31CCC(=O)O1 (stereo partly specified) | 187 | 28 | 34 | –

— ChEMBL document CHEMBL1125151, “Aldosterone antagonists. 3. Synthesis and activities of steroidal 7 alpha-(alkoxycarbonyl)-15,16-methylene spirolactones” (1990)
